In the NIST ThermoML archive (doi:10.1021/je034290l):

Key:
[1] = excess molar enthalpy (molar enthalpy of mixing); xn = mol fraction of the nth substance listed; conditions: 101.32 kPa, Liquid, Calvet calorimetry
[2] = xn = mol fraction of the nth substance listed; conditions: 101.32 kPa, Liquid

CCC(=O)OC [methyl propanoate] + CC(C)(C)O
Conditions	excess molar enthalpy [kcal/mol]	excess molar volume [m3/mol]
[1], 299.15 K, x1 = 0.0603	0.1	–
[1], 299.15 K, x1 = 0.1414	0.213	–
[1], 299.15 K, x1 = 0.2285	0.317	–
[1], 299.15 K, x1 = 0.3164	0.395	–
[1], 299.15 K, x1 = 0.3971	0.442	–
[1], 299.15 K, x1 = 0.4573	0.461	–
[1], 299.15 K, x1 = 0.4705	0.464	–
[1], 299.15 K, x1 = 0.5159	0.467	–
[1], 299.15 K, x1 = 0.5343	0.465	–
[1], 299.15 K, x1 = 0.5899	0.453	–
[1], 299.15 K, x1 = 0.6328	0.435	–
[1], 299.15 K, x1 = 0.6447	0.428	–
[1], 299.15 K, x1 = 0.7116	0.387	–
[1], 299.15 K, x1 = 0.7778	0.328	–
[1], 299.15 K, x1 = 0.8496	0.244	–
[1], 299.15 K, x1 = 0.9351	0.115	–
[1], 318.15 K, x1 = 0.0486	0.0779	–
[1], 318.15 K, x1 = 0.1007	0.153	–
[1], 318.15 K, x1 = 0.1707	0.24	–
[1], 318.15 K, x1 = 0.2374	0.31	–
[1], 318.15 K, x1 = 0.3021	0.364	–
[1], 318.15 K, x1 = 0.3578	0.4	–
[1], 318.15 K, x1 = 0.4076	0.425	–
[1], 318.15 K, x1 = 0.4404	0.439	–
[1], 318.15 K, x1 = 0.4827	0.445	–
[1], 318.15 K, x1 = 0.5312	0.45	–
[1], 318.15 K, x1 = 0.582	0.441	–
[1], 318.15 K, x1 = 0.6358	0.423	–
[1], 318.15 K, x1 = 0.6986	0.393	–
[1], 318.15 K, x1 = 0.7666	0.336	–
[1], 318.15 K, x1 = 0.8289	0.272	–
[1], 318.15 K, x1 = 0.8931	0.189	–
[1], 318.15 K, x1 = 0.9582	0.0935	–
[2], 303.15 K, x1 = 0.0517	–	1.52e-07
[2], 303.15 K, x1 = 0.1081	–	2.93e-07
[2], 303.15 K, x1 = 0.1525	–	3.88e-07
[2], 303.15 K, x1 = 0.202	–	4.71e-07
[2], 303.15 K, x1 = 0.2516	–	5.43e-07
[2], 303.15 K, x1 = 0.3129	–	6.1e-07
[2], 303.15 K, x1 = 0.3638	–	6.48e-07
[2], 303.15 K, x1 = 0.406	–	6.67e-07
[2], 303.15 K, x1 = 0.4603	–	6.78e-07
[2], 303.15 K, x1 = 0.5167	–	6.79e-07
[2], 303.15 K, x1 = 0.5558	–	6.68e-07
[2], 303.15 K, x1 = 0.6086	–	6.41e-07
[2], 303.15 K, x1 = 0.6546	–	6.07e-07
[2], 303.15 K, x1 = 0.7197	–	5.43e-07
[2], 303.15 K, x1 = 0.752	–	4.91e-07
[2], 303.15 K, x1 = 0.8122	–	4.15e-07
[2], 303.15 K, x1 = 0.8545	–	3.48e-07
[2], 303.15 K, x1 = 0.9065	–	2.53e-07
[2], 303.15 K, x1 = 0.9394	–	1.73e-07
[2], 318.15 K, x1 = 0.075	–	1.94e-07
[2], 318.15 K, x1 = 0.1476	–	3.15e-07
[2], 318.15 K, x1 = 0.1952	–	4.16e-07
[2], 318.15 K, x1 = 0.2636	–	4.98e-07
[2], 318.15 K, x1 = 0.3159	–	5.59e-07
[2], 318.15 K, x1 = 0.3628	–	6.06e-07
[2], 318.15 K, x1 = 0.4165	–	6.39e-07
[2], 318.15 K, x1 = 0.4931	–	6.48e-07
[2], 318.15 K, x1 = 0.5472	–	6.41e-07
[2], 318.15 K, x1 = 0.6296	–	6.09e-07
[2], 318.15 K, x1 = 0.6429	–	5.87e-07
[2], 318.15 K, x1 = 0.7013	–	5.41e-07
[2], 318.15 K, x1 = 0.795	–	4.27e-07
[2], 318.15 K, x1 = 0.8267	–	3.68e-07
[2], 318.15 K, x1 = 0.8822	–	2.81e-07
[2], 318.15 K, x1 = 0.9493	–	1.39e-07

CCCC(=O)OC [methyl butanoate] + CC(C)(C)O
Conditions	excess molar enthalpy [kcal/mol]	excess molar volume [m3/mol]
[1], 299.15 K, x1 = 0.0487	0.0783	–
[1], 299.15 K, x1 = 0.1046	0.158	–
[1], 299.15 K, x1 = 0.1632	0.234	–
[1], 299.15 K, x1 = 0.2233	0.299	–
[1], 299.15 K, x1 = 0.283	0.351	–
[1], 299.15 K, x1 = 0.3383	0.389	–
[1], 299.15 K, x1 = 0.3915	0.415	–
[1], 299.15 K, x1 = 0.4395	0.431	–
[1], 299.15 K, x1 = 0.4853	0.439	–
[1], 299.15 K, x1 = 0.5221	0.441	–
[1], 299.15 K, x1 = 0.5268	0.441	–
[1], 299.15 K, x1 = 0.5545	0.439	–
[1], 299.15 K, x1 = 0.5745	0.437	–
[1], 299.15 K, x1 = 0.636	0.417	–
[1], 299.15 K, x1 = 0.7063	0.379	–
[1], 299.15 K, x1 = 0.778	0.323	–
[1], 299.15 K, x1 = 0.8552	0.24	–
[1], 299.15 K, x1 = 0.9325	0.129	–
[1], 318.15 K, x1 = 0.0458	0.0698	–
[1], 318.15 K, x1 = 0.1	0.141	–
[1], 318.15 K, x1 = 0.1556	0.207	–
[1], 318.15 K, x1 = 0.2136	0.274	–
[1], 318.15 K, x1 = 0.2734	0.329	–
[1], 318.15 K, x1 = 0.3313	0.37	–
[1], 318.15 K, x1 = 0.3854	0.401	–
[1], 318.15 K, x1 = 0.4221	0.415	–
[1], 318.15 K, x1 = 0.4655	0.427	–
[1], 318.15 K, x1 = 0.5127	0.431	–
[1], 318.15 K, x1 = 0.5632	0.429	–
[1], 318.15 K, x1 = 0.6217	0.416	–
[1], 318.15 K, x1 = 0.6845	0.388	–
[1], 318.15 K, x1 = 0.7505	0.344	–
[1], 318.15 K, x1 = 0.8187	0.28	–
[1], 318.15 K, x1 = 0.884	0.195	–
[1], 318.15 K, x1 = 0.9472	0.102	–
[2], 303.15 K, x1 = 0.0628	–	1.6e-07
[2], 303.15 K, x1 = 0.0928	–	2.36e-07
[2], 303.15 K, x1 = 0.1566	–	3.68e-07
[2], 303.15 K, x1 = 0.194	–	4.3e-07
[2], 303.15 K, x1 = 0.2507	–	5.07e-07
[2], 303.15 K, x1 = 0.3088	–	5.69e-07
[2], 303.15 K, x1 = 0.3502	–	6.04e-07
[2], 303.15 K, x1 = 0.3916	–	6.3e-07
[2], 303.15 K, x1 = 0.453	–	6.49e-07
[2], 303.15 K, x1 = 0.5059	–	6.51e-07
[2], 303.15 K, x1 = 0.5463	–	6.4e-07
[2], 303.15 K, x1 = 0.6022	–	6.17e-07
[2], 303.15 K, x1 = 0.6588	–	5.71e-07
[2], 303.15 K, x1 = 0.698	–	5.37e-07
[2], 303.15 K, x1 = 0.7527	–	4.73e-07
[2], 303.15 K, x1 = 0.7928	–	4.2e-07
[2], 303.15 K, x1 = 0.851	–	3.21e-07
[2], 303.15 K, x1 = 0.9115	–	2.06e-07
[2], 303.15 K, x1 = 0.942	–	1.4e-07
[2], 318.15 K, x1 = 0.1079	–	2.35e-07
[2], 318.15 K, x1 = 0.1326	–	2.91e-07
[2], 318.15 K, x1 = 0.1749	–	3.68e-07
[2], 318.15 K, x1 = 0.2201	–	4.34e-07
[2], 318.15 K, x1 = 0.2751	–	5.03e-07
[2], 318.15 K, x1 = 0.3257	–	5.54e-07
[2], 318.15 K, x1 = 0.3949	–	6.05e-07
[2], 318.15 K, x1 = 0.4521	–	6.3e-07
[2], 318.15 K, x1 = 0.4783	–	6.36e-07
[2], 318.15 K, x1 = 0.55	–	6.31e-07
[2], 318.15 K, x1 = 0.5996	–	6.16e-07
[2], 318.15 K, x1 = 0.6675	–	5.74e-07
[2], 318.15 K, x1 = 0.7318	–	5.24e-07
[2], 318.15 K, x1 = 0.8163	–	4.04e-07
[2], 318.15 K, x1 = 0.8728	–	3.17e-07
